# Test results from US20030212142A1, “Use of derivatives of valproic acid and 2-valproenic acid amides for the treatment of mania in bipolar disorder” (Yissum Research Development Company of the Hebrew …, priority 2000, published 2003).
# Entries after “also recorded” stand apart in the source; their conditions may differ.
# System: amphetamine-induced hyperactivity
# Experiment: amphetamine-induced hyperactivity model of mania in rats (activity meter, rearing)
# Type: in vivo, male Sprague Dawley rats
# Details: Compound 1 200 mg/kg by gavage; for Vertical Activity (Rearing), Mean Activity, Amphetamine challenge: amphetamine 0.5 mg/kg s.c. challenge; for Vertical Activity (Rearing), Mean Activity, Amphetamine challenge / Vertical Activity (Rearing), Mean activity, Saline challenge: movements per 30 min, Li+ 6 mg/kg by gavage; for Vertical Activity (Rearing), Mean activity, Saline challenge: saline s.c. challenge
# Protocol: Evaluation of possible anti-bipolar effects of Compound 1 was followed in the amphetamine-induced hyperactivity model of mania in rats. Activities of rats were followed in an activity meter (Elvicom, Israel) based on 2 levels laser beams and equipped with a computerized system that can count the vertical movements of rats (rearing). Activities were recorded for -30 min for each session, and the resultant appropriate movement reported per 30 min. Rats were housed under a 12 hr light/dark cycle and the behavioral testing was conducted in the light phase.
# The activities of rats following treatment with Compound 1, Li^+ (the standard drug for mania), and a control group were followed before and after being challenged with amphetamine. The statistical analyses were conducted using a two way ANOVA for the effects of drugs, amphetamine (repeated measure) and the drug-amphetamine interaction.
# In these experiments 30 male Sprague Dawley (weighing 200-250 g) rats were equally divided into 3 treatment groups: control, Li^+ (6 mg/kg by gavage)), and Compound 1 (200 mg/kg by gavage) (Drugs were suspended in 5% methyl cellulose). Half of the rats in each group were challenged (administered) amphetamine (0.5 mg/kg subsutaneously (s.c.)) and the other half was given saline (s.c.). Ten minutes later all rats were placed in the activity meter. One week later the procedure was repeated, except that the order of treatment was reversed; those rats which received saline on the first day were given amphetamine and those given amphetamine the first day were administered saline.
SMILES,"Vertical Activity (Rearing), Mean Activity, Amphetamine challenge","effect on amphetamine-induced rearing compared to control animals challenged with amphetamine (amphetamine 0.5 mg/kg s.c., p=0.06)","Vertical Activity (Rearing), Mean activity, Saline challenge"
CCCC(CCC)C(=O)NCC(N)=O [Compound 1],71.3,decreases amphetamine-induced hyperactivity; also recorded: reduced the rearing; also recorded: decreased the induced rearing in a similar manner as Li^+,34.1
"[Li] [Li, lithium, reference compound]",126.7,,59.8
